Test results published in PMC5949603, “Bridged bicyclic peptides as potential drug scaffolds: synthesis, structure, protein binding and stability” (Chemical Science, 2015).
Where a SMILES comes first, the peptide text is derived from it. Bridges are numbered along the chain shown (N, C = ends). [ ]: non-standard residue; d: D form.

What was measured:
Human calmodulin (CALM1) = target: T1, Human calmodulin (CALM1) (Homo sapiens, UniProt P0DP23); assay: MicroScale Thermophoresis (MST) binding to fluorescently labeled calmodulin; details: 10 nM labeled calmodulin, 25 °C
T1 construct: purchased Enzo Life Sciences, Lausen, Switzerland
Procedure: Human calmodulin (Enzo Life Sciences, Lausen, Switzerland) was labeled using the RED-NHS Labeling kit (NanoTemper Technologies). The labeling reaction was performed according to the manufacturer's instructions in the supplied labeling buffer applying a concentration of 20 μM protein (molar dye : protein ratio ≈ 2 : 1) at RT for 30 min. Unreacted dye was removed with the supplied dye removal columns equilibrated with MST buffer (50 mM TrisHCl pH 7.5, 150 mM NaCl, 10 mM MgCl2). The label : protein ratio was determined using photometry at 650 and 280 nm. Thereby, a ratio of 0.8 was typically achieved. The labeled calmodulin was adjusted to 20 nM with MST buffer. […]
For thermophoresis, each ligand dilution was mixed with one volume of labeled calmodulin, which leads to a final concentration of fluorescently labeled calmodulin of 10 nM and final ligand concentrations ranging from 15.3 nM to 250 μM. […] Thermophoresis was measured using a Monolith NT.115 instrument (NanoTemper Technologies GmbH) at an ambient temperature of 25 °C with 5 s/30 s/5 s laser off/on/off times, respectively. […] Data of three independently pipetted measurements were analyzed (NT.Analysis software version 1.5.41, NanoTemper Technologies) using the signal from Thermophoresis + T-Jump. […]

CALM1 (calmodulin) [1] = target: T2, CALM1 (calmodulin) (Homo sapiens, UniProt P0DP23); assay: Isothermal titration calorimetry (ITC) with calmodulin; details: 50 μM calmodulin in water, 25 °C, pH 6.5, read-out: KD (binding affinity to calmodulin by isothermal titration calorimetry)
Procedure: ITC experiments were performed using a MicroCal ITC200 from GE Healthcare. 27c and 28c were dissolved in water to a concentration of 0.7 and 0.6 mM, respectively. Calmodulin was dissolved in water at 50 μM. Optionally CaCl2 (final concentration 500 μM) or EDTA (final concentration 1 mM) were added. The peptide solution was injected into the calmodulin solution (2.5 μL of peptide per injection at an interval of 180 s, a total of 15 injections into the cell volume of 200 μL, with stirring speed of 800 rpm, at 25 °C). […] The experimental data were fitted to a theoretical titration curve (“one set of sites” model) using software supplied by Microcal, with n (number of binding sites per monomer), ΔH (binding enthalpy, kcal mol^–1) and Ka (association constant, M^–1), as adjustable parameters. Thermodynamic parameters were calculated from the Gibbs free energy equation, ΔG = ΔH – TΔS = –RT ln Ka, where ΔG, ΔH, and ΔS are the changes in free energy, enthalpy, and entropy of binding, respectively. T is the absolute temperature, and R = 1.98 cal mol^–1 K^–1.

[2] = Human serum stability assay; type: in vitro ADME; details: 24 h, 37 °C, 200 μM peptide
Procedure: Human serum was diluted 1 : 4 in DMEM. Selected peptide was diluted in TRIS buffer to a concentration of 400 μM. Aliquots of peptide solution (50 μL) were added to aliquots of serum (50 μL) in sterile Eppendorf tubes, to reach a peptide concentration of 200 μM during the assay. Samples were incubated at 37 celsius degree under gentle stirring (350 rpm). Different samples (triplicate) were quenched at different time points (0/1/3/6/24 h) by precipitating serum proteins through the addition of ZnSO4·7H2O (0.1 M, 100 μL) and cooling down in ice bath. Protein precipitates were pelleted under centrifugation and the supernatants were sampled and evaporated to dryness in a centrifugal evaporator. Samples were resuspended in a H2O/ACN (4 : 1) mixture and centrifuged again to remove residual protein precipitate. Supernatants were then sampled and analysed by LC-MS. Experiment controls included a precipitation control for each peptide, to test their resistance to the protein precipitation conditions, and serum blanks, to check reproducibility over different serum batches. Two peaks originating from DMEM, surviving the incubation in serum and the protein precipitation conditions were used as internal standard.

CALM1 (calmodulin) [3] = target: T2, CALM1 (calmodulin); assay: Capture compound mass spectrometry (CCMS) proteome profiling in HeLa cell lysate; type: binding; parameters: endogenous in cells; host or cells: HeLa cell lysate; details: probe 5 μM, competitor 240 μM, enrichment >2-fold, triplicate
Procedure: Capture experiments were carried out in PCR strips according to the general CCMS procedure.[48] 400 μg of HeLa cell lysate at 10 μg μL^–1 was pipetted for each set in triplicate. To the competition samples, 240 μM of BBP-competitor was added as a final concentration and incubated for 30 min at 4 °C. Assay and competition samples were then incubated with BBP-capture compounds or BBP-scaffold controls at a final concentration of 5 μM for 1 hour at 4 °C on a rotating axis and irradiated for 10 min at 310 nm in a caproBox™ (caprotec bioanalytics GmbH) to promote covalent cross-linking. Streptavidin-coated magnetic beads (Invitrogen) were added to the samples and further rotated for 1 hour at 4 °C. The beads were collected using a caproMag (caprotec bioanalytics GmbH) and washed 4 times with washing buffer (caprotec bionanalytics GmbH) followed by 3 times washing with 80% acetonitrile and lastly resuspended in MS-grade water. For tryptic digestion, the magnetic beads were incubated with trypsin in 50 mM ammonium bicarbonate for 16 hours at 37 °C. The supernatant was recovered, evaporated and stored at –20 °C until mass spectrometry analysis.
Mass Spectrometry: Tryptic digests were analyzed by online nanoflow liquid chromatography tandem MS (LC-MSn) on an UltiMate 3000 RSLCnano System (Dionex, part of Thermo Fisher Scientific, Germany) coupled to a LTQ-Orbitrap Velos instrument (Thermo Fisher Scientific, Germany) through a Proxeon nanoelectrospray ion source (Proxeon, part of Thermo Fisher Scientific, Germany). For chromatographic separation samples were first loaded on a reversed phase (RP) precolumn (Acclaim PepMap100, 5 μm, 100 Å, 100 μm i.d. × 20 mm) and separated on a RP analytical column (Acclaim PepMap RSLC C18, 2 μm, 100 Å, 75 μm i.d. × 150 mm, Dionex, part of Thermo Fisher Scientific, Germany) performing a 96 min gradient (5–45 % acetonitrile, 0.1% formic acid). MS detection was performed in the data-dependent mode allowing to automatically switch between Orbitrap-MS and LTQ-MS/MS acquisition in a top 20 configuration at 60 K resolution for a full scan with subsequent collision induced dissociation (CID) fragmentation. Full scan MS spectra (from m/z 300–2000) were acquired in the Orbitrap analyzer after accumulation to a target value of 1 × 10^6 in the linear ion trap. The most intense ions (up to twenty, depending on signal intensity) with charge state ≥2 were sequentially isolated at a target value of 5000 and fragmented in the linear ion trap using low energy CID with normalized collision energy of 35%. […] All MS/MS data were analyzed using Andromeda implemented in MaxQuant.[33] […] The label free quantification option was selected with a maximal retention time window of 2 min for the alignment between LC-MS/MS runs.

[4] = Water solubility (stated in words); type: physicochemical

N=C(N)NCCC[C@@H]1NC(=O)CSC[C@H]2NC(=O)[C@@H](Cc3ccccc3)NC(=O)[C@H](CCCNC(=N)N)NC(=O)[C@H](CCC(=O)NCCCC[C@@H](C(=O)NCC(N)=O)NC(=O)[C@H](Cc3ccccc3)NC2=O)NC1=O [28c, R^2E^1Rfz^2FK^1G] ({CH2CO}-RER[dF][dC]FKG-NH2; lactam 2-7; thioether N-5)
KD (binding affinity to calmodulin by microscale thermophoresis) (Human calmodulin (CALM1); MST buffer pH 7.5): no measurable affinity
Kd (CALM1 (calmodulin) [1]): 6.8 ± 0.6 µM

CC(C)C[C@@H]1NC(=O)CC[C@@H]2NC(=O)[C@@H]3CCCN3C(=O)[C@@H](Cc3ccc(O)cc3)NC(=O)[C@@H](CCCCNC(=O)[C@H](C)NC2=O)NC(=O)CNC1=O [compound 15, L^1Gk^2yPE^1A^2] (LG[dK][dY]PEA; lactam 3-C, N-6)
Stability upon incubation in human serum [2]: stable

NCCCC[C@@H]1NC(=O)CSC[C@H]2NC(=O)[C@@H](Cc3c[nH]c4ccccc34)NC(=O)[C@H](CCCCN)NC(=O)[C@H](CCC(=O)NCCCC[C@@H](C(=O)NCC(N)=O)NC(=O)[C@H](Cc3c[nH]c4ccccc34)NC2=O)NC1=O [27c, K^2E^1Kwz^2WK^1G] ({CH2CO}-KEK[dW][dC]WKG-NH2; lactam 2-7; thioether N-5)
Kd (Human calmodulin (CALM1); MST buffer pH 7.5, read-out: KD (binding affinity to calmodulin by microscale thermophoresis)): 4.5 ± 1.1 µM
Stability upon incubation in human serum [2]: entirely stable
Kd (CALM1 (calmodulin) [1]): 0.8 ± 0.05 µM

R^2E^1Rfz^2FK^1GFGGK(biot) [28s]
CALM1 (calmodulin) identified as target by CCMS (CALM1 (calmodulin) [3]): did not indicate this target

R^2E^1Rfz^2FK^1GBGGK(biot) [28x]
CALM1 (calmodulin) identified as target by CCMS (CALM1 (calmodulin) [3]): did not indicate this target

CC(C)C[C@H]1NC(=O)CC[C@@H]2NC(=O)[C@@H]3CCCN3C(=O)[C@@H](Cc3ccccc3)NC(=O)[C@@H](CCCCNC(=O)[C@@H](C)NC2=O)NC(=O)CNC1=O [compound 1, l^1Gk^2fPE^1a^2] ([dL]G[dK][dF]PE[dA]; lactam 3-C, N-6)
Water solubility [4]: water insoluble

K^2E^1Kwz^2WK^1GFGGK(biot) [27s]
CALM1 (calmodulin) identified as target by CCMS (CALM1 (calmodulin) [3]): specifically targeted

K^2E^1Kwz^2WK^1GBGGK(biot) [27x]
CALM1 (calmodulin) identified as target by CCMS (CALM1 (calmodulin) [3]): specifically targeted
